Measured values: patent US5661129A, “Organic nitrates containing a disulfide group as cardiovascular agents” (Schwarz Pharma AG, priority 1993, dated 1997)
pEC50: −log10 of the molar value.

Legend:
[1] = continuous intake of high doses; classical organic nitrates and EP compounds; cited from earlier work
[2] = tested on: isolated rat aortic rings; assay: Vasorelaxation in vitro on isolated rat aortic rings precontracted with phenylephrine; assay type: cell-based; conditions: rat aortic rings precontracted with 2×10^-7 mol/l phenylephrine; cumulative addition; n = 3-6; read-out: EC50 (concentration which leads to a 50% relaxation of the precontracted vascular ring)
Source text: The vasorelaxant effect of the compounds of the general formula I was investigated in vitro on isolated rat aortic rings. For this purpose, rats were anaesthetized and then the thoracic aorta was removed, freed of adipose and adventitious tissue and divided into annular segments about 5 mm wide. The aortic rings were transferred into temperature-controlled baths containing Tyrodes' solution through which 5% CO2 /95% O2 was passed, and were subjected to a preload of 2 g. While continuously recording the change in force, the vascular rings were precontracted after equilibration with 2×10^-7 mol/l phenylephrine for 90 minutes. After a stable contraction level was reached, the nitrato compounds were cumulatively added to the vessel bath liquid, the next higher concentration in each case being added only after a stable relaxation level had been reached. The concentration of the particular compound which leads to a 50% relaxation of the precontracted vascular ring (EC50) was found from the resulting concentration-effect plots. Table 1 contains the EC50 values found in this way for selected exemplary compounds.

[3] = tested on: arterial, central venous and pulmonary artery blood pressure in a conscious dog; assay: Effects on blood pressure in a conscious dog; assay type: in vivo; design: unit not given here; conditions: intravenous, 13.4 μg/kg disulphide compounds
Method: The SAP was measured using a tip catheter transducer inserted into the aorta via the femoral artery, and the CVP and the PAP were measured using a Swan-Ganz catheter which was inserted via the left jugular vein and whose catheter tips were advanced as far as the pulmonary artery and the right atrium respectively and through whose lumens the particular pressure was passed to Statham® pressure transducers. To quantify the lowering of blood pressure elicited by the compound according to the invention, the areas under the curves (AUC) of the recorded changes in blood pressure were determined. Table 2 contains the AUC values for the relevant lowering of blood pressure after intravenous administration of 13.4 μg/kg of the disulphide compounds according to the invention and after intravenous administration of 26.8 μg/kg isosorbide 5-mononitrate (5-ISMN).

Compound	nitrate tolerance (attenuation of the effect) [1]	pEC50 [2]	AUC (CVP), lowering of central venous blood pressure [3]	AUC (PAP), lowering of pulmonary artery blood pressure [3]	AUC (SAP), lowering of systolic arterial blood pressure [3]
O=[N+]([O-])O[C@@H]1CO[C@H]2[C@@H]1OC[C@@H]2O [Example 5-ISMN, isosorbide 5-mononitrate, reference compound]	distinct attenuation of the effect, nitrate tolerance				
CC(C)(C)OC(=O)[C@H](CSSC[C@H](NC(=O)C(C)(C)CO[N+](=O)[O-])C(=O)OC(C)(C)C)NC(=O)C(C)(C)CO[N+](=O)[O-] [N,N'-di(3-nitratopivaloyl)-L-cystine di-tert.-butyl ester]		4.23			
CCOC(=O)[C@H](CSSC[C@H](NC(=O)C(C)(C)CO[N+](=O)[O-])C(=O)OCC)NC(=O)C(C)(C)CO[N+](=O)[O-] [N,N'-di(3-nitratopivaloyl)-L-cystine diethyl ester]		5.82	85.7	12.0	94.1
CNC(=O)[C@H](CSSC[C@H](NC(=O)C(C)(C)CO[N+](=O)[O-])C(=O)NC)NC(=O)C(C)(C)CO[N+](=O)[O-] [N,N'-di(3-nitratopivaloyl)-L-cystine-di(N-methylamide)]		4.62	33.7	3.5	41.9
CC(C)(CO[N+](=O)[O-])C(=O)N[C@@H](CSSC[C@H](NC(=O)C(C)(C)CO[N+](=O)[O-])C(=O)O)C(=O)O [N,N'-di(3-nitratopivaloyl)-L-cystine]		3.92	67.9	2.7	17.3
CC(C)(CO[N+](=O)[O-])C(=O)N[C@@H](CSSC[C@H](NC(=O)C(C)(C)CO[N+](=O)[O-])C(N)=O)C(N)=O [N,N'-di(3-nitratopivaloyl)-L-cystinediamide]		4.52	46.9	28.1	55.3
CC(C)(CO[N+](=O)[O-])C(=O)N[C@@H](CSSC[C@H](NC(=O)C(C)(C)CO[N+](=O)[O-])C(=O)N1CCCCC1)C(=O)N1CCCCC1 [N,N'-di(3-nitratopivaloyl)-L-cystinedipiperidide]		4.00	36.9	18.5	10.4
O=[N+]([O-])OCC(CO[N+](=O)[O-])O[N+](=O)[O-] [glycerol trinitrate]	distinct attenuation of the effect, nitrate tolerance				
